Target: T1, sweet receptor (T1R2+T1R3) (Homo sapiens, UniProt Q7RTX0)
T1 construct: culture human fungiform taste papillae cells retaining their physiological and molecular characteristics; endogenous in cells; host or cells: cultured primary human fungiform taste papillae (HBO) cells
T1 sequence (Q7RTX0 21-852): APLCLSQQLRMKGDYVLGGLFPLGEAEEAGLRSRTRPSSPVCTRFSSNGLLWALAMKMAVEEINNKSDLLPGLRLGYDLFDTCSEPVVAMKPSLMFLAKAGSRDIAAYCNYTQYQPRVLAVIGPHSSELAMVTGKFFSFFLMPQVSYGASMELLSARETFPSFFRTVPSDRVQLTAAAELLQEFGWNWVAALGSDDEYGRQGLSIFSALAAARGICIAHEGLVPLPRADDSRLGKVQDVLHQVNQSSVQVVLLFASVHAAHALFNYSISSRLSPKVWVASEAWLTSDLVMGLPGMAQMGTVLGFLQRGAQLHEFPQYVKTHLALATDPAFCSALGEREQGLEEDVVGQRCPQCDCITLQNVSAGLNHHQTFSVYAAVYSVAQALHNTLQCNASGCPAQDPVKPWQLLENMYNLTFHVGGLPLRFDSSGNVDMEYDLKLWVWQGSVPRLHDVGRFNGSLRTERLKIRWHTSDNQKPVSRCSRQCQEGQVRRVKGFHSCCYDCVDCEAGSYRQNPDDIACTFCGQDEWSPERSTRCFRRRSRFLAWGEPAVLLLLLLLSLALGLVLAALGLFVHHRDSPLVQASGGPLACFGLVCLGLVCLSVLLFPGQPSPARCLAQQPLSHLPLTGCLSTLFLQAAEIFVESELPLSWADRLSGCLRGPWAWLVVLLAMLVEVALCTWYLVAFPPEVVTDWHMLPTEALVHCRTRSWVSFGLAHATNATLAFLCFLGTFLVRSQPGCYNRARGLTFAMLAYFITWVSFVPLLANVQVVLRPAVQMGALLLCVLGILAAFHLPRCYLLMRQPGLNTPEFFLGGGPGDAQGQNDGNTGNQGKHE
T1 sequence (Q8TE23 20-839 partner): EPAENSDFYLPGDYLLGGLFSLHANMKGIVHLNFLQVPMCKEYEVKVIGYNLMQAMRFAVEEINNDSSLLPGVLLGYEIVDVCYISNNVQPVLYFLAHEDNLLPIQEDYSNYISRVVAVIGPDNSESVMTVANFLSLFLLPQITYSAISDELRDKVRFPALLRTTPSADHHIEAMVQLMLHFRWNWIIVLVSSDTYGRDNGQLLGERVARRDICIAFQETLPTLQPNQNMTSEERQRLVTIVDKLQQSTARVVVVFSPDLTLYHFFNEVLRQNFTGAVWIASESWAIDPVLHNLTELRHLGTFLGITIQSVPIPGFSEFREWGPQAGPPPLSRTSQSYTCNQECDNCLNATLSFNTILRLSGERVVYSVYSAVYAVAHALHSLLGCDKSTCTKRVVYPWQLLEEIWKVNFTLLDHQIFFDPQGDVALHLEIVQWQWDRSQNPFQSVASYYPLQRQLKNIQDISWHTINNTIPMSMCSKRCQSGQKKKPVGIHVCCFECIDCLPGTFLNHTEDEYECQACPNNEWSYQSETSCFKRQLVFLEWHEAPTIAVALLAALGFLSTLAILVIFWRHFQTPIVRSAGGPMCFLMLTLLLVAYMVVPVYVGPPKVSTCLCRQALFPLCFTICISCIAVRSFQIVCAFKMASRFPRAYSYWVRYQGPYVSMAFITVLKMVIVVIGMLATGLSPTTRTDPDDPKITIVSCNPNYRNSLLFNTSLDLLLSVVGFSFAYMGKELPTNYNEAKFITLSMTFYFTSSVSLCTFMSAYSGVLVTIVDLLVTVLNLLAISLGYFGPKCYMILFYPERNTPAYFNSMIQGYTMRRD
Assay: Lactisole sensitivity of sophorolipid-induced calcium responses in cultured HBO cells
Format: cell-based
Settings: lactisole = T1R3 blocker; C16-SL-responsive cells n=29 (FIG. 4)
Source text: In vitro cell-based assay of sweet property. Establishment and maintenance of cultures of human fungiform taste papillae cells (HBO cells): We previously established the current proprietary protocol (Ozdener, H., et al., Chem. Senses, 31(3): 279-90 (2006); Ozdener, M. H., et al., Chem. Senses, 36(7): 601-12 (2011); Ozdener, H., et al., Isolation and culture of human fungiform taste papillae cells, J. Vis. Exp., 2012 May 17;(63):e3730) which allowed us to culture human fungiform taste papillae cells retaining their physiological and molecular characteristics for more than a year.
The human fungiform taste papillae cells were cultured according to protocols that we have published (Ozdener et al. 2006, Ozdener et al. 2011). […]
Calcium imaging: Cultured taste cells grown for 3-4 days glass coverslips which were loaded for 30-60 min with the calcium sensitive dye fura-2 by incubating the cells in Ringer solution (145 mM NaCl, 5 mM KCl, 1 mM MgCl2, 1 mM CaCl2, 1 mM Na-pyruvate, 20 mM Hepes-Na and Cellobiose 15 mM, pH 7.2 with osmolarity adjusted to 300-310 by 5M NaCl) supplemented with […] (Molecular Probes Inc., Eugene, Oreg.) and 10 mg/ml Pluronic® F127 (Molecular Probes Inc.). […] Stimuli were dissolved in Ringer and then pH and osmolarity readjusted if needed. […]

- effect of lactisole on induced Ca responses, lactisole-sensitive HBO cells: lactisole sensitive
SMILES: OC[C@H]1O[C@@H](O[C@@H]2[C@@H](O)[C@H](O)[C@@H](CO)O[C@H]2O)[C@H](O)[C@@H](O)[C@@H]1O [Sophorose, 2-O-β-D-glucopyranosyl-β-D glucopyranose]
